Values of other authors in US20100004582A1, “Wide-Area Parasystemic Treatment of Skin Related Conditions” (PANTEC BIOSOLUTIONS AG, priority 2006, published 2010).

Tested on: psoriasis
Settings: conventional efalizumab treatment, not via porated skin

Substance: efalizumab
- patients in whom treatment attenuated the disease: 22-28 % of patients
